Data on 18 compounds can be found in US20090005385A1, “Treatment or Prevention of Cancer or Cardiovascular Disease with Methenyltetrahydrofolate Synthetases” (CORNELL RESEARCH FOUNDATION, INC., priority 2004, published 2009).

The target of experiment [1] is T1, MTHFS (Mus musculus, UniProt Q9D110).
T1 sequence (Q9D110 1-203): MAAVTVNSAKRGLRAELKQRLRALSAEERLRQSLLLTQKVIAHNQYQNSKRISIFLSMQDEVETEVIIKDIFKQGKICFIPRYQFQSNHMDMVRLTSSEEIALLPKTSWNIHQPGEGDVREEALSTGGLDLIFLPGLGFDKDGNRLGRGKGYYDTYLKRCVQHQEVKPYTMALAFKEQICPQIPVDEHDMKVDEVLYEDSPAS
The experiment in a line: Inhibition of MTHFS by folates/antifolates, reaction specificity (Ki, Km). Particulars: for Km: substrate of MTHFS. Type of experiment: biochemical. As to the method:
Tissue samples were sonicated four times for 15 s in a buffer containing 100 mM HEPES pH 7.0, 100 mM sodium chloride, 5 mM EDTA, 1% Tween-20. The solution was clarified by centrifugation. MTHFS activity was determined using a spectrophotometer by monitoring the appearance of 5,10-methenyltetrahydrofolate, which has an absorbance maximum at 355 nm. For a typical assay, 50 μL of clarified tissue supernatant was added to a quartz cuvette containing 100 μM (6S)-5-formylTHF, 1 mM Mg-ATP and 100 mM MES, pH 6.0 and the rate of 5,10-methenylTHF formation was quantified. Activity measurements were normalized to total protein that was quantified using the Lowry-Bensadoun method (Bensadoun et al., “Assay of Proteins in the Presence of Interfering Materials,” Anal Biochem 70:241-250 (1976), which is hereby incorporated by reference in its entirety).
Several 10-formyl-substituted folates were screened for their ability to inhibit wild-type MTHFS.

The subject of experiment [2] is MCF-7 cells. The experiment in a line: Radiolabeled folate accumulation in cultured cells treated with catecholamines. The experiment is classed as cell-based, human. Particulars: 12 h, 25 nM (6S)-[^3H]-5-formylTHF, 0-150 μM catecholamine. The protocol:
Cell monolayers at 70% confluence in 6-well plates were labeled for 12 h in defined αMEM lacking folate and glycine, but supplemented with 25 nM (6S)-[^3H]5-formylTHF and 0, 25 μM, 50 μM, 75 μM, 100 μM, or 150 μM NADA, dopamine, or epinephrine. Cells were harvested by washing with 5 mL PBS, trypsinized, and pelleted by centrifugation and viable cells (determined by their ability to exclude trypan blue) were quantified. The cell pellets were lysed with 0.2 M ammonium hydroxide, and the intracellular tritium was quantified using a Beckman LS 8100 liquid scintillation counter.
Because the addition of NADA to the chase medium increased folate turnover rates in MCF-7 cells, the effects of various catecholamines on [^3H]folate accumulation was investigated. Cells were cultured for 12 h in defined αMEM medium containing 25 nM (6S)-[^3H]-5-formylTHF and various concentrations of NADA, dopamine, and epinephrine, and cellular [^3H]folate content was determined.

In experiment [3] the test system is MCF-7 cells. Briefly: Folate turnover in cultured cells (pulse-chase). Particulars: 20 μM in chase medium. The experiment is classed as cell-based, human. The protocol:
Cell monolayers at 75% confluence were washed with PBS, then labeled for 12 h in defined αMEM lacking folate and glycine and supplemented with 25 nM (6S)-[^3H]5-formylTHF. For the chase, cell monolayers were washed with 10 ml of PBS, trypsinized, and pelleted by centrifugation. The cells were seeded in triplicate (1×10^6 cells) into 100 mm culture plates containing 10 ml of defined αMEM supplemented with 2 μM folic acid. Catecholamines (20 μM dopamine, NADA, and L-dopa) were prepared freshly and added to the chase media prior to the addition of labeled cells. Cells were harvested at defined time points, the medium was removed and the tritium in the medium was quantified. The cell monolayers were washed with PBS and lysed with 0.2 M ammonium hydroxide. Tritium remaining in the cells was quantified using a Beckman LS 8100 liquid scintillation counter.
Catecholamine availability may be rate limiting for MTHFS-catalyzed folate catabolism in MCF-7 cells. The effects of exogenous catecholamines on folate turnover rates were determined using pulse-chase analyses in MCF-7 cells. Folate turnover in MCF-7 cells labeled with [^3H]-5-formylTHF is biphasic, with an initial rapid phase of turnover followed by a slower phase (Anguera et al., J. Biol. Chem. 278:29856-29862 (2003), which is hereby incorporated by reference in its entirety). Addition of 20 μM NADA to the chase medium increased the magnitude of the rapid phase of folate turnover by 12% compared to untreated cells (FIG. 11A). […] To distinguish between these two mechanisms, 20 μM dopamine and L-dopa were added to the chase medium. Dopamine is the precursor of NADA, and both dopamine and L-dopa can function as oxidants following oxidation of their diphenolic ring generating dopamine-quinone or dopa-quinone (Rescigno et al., Biochemical Pharmacology 56:1089-1096 (1998); Graham, D. G. Mol. Pharmacol. 14:633-643 (1978), which are hereby incorporated by reference in their entirety). […] The addition of dopamine to the culture medium increased the magnitude of the rapid phase of folate turnover by only 4% relative to untreated cells (FIG. 11A). The minor effect of dopamine on folate turnover may reflect N-acetyltransferase-mediated dopamine acetylation that generating NADA. […] In summary, the pulse chase experiments indicate that NADA may be limiting for in vivo folate catabolism, and NADA may function specifically as the electron acceptor molecule for MTHFS-mediated folate catabolism.

Where [4] appears, read: 37° C., pH 6.0, inhibitor of MTHFS, read-out: Ki.

Molecules are shown by their SMILES. Values joined by “and” are separate entries in the source; they are usually repeats but may differ in a detail not shown here. Equal entries are not always repeated. Where two headings read alike, the source gives them in different places.

The Ki is the dissociation constant of the complex between target and ligand, obtained from inhibition or displacement. In the case of `Nc1nc2ncc(CN(C=O)c3ccc(C(=O)N[C@@H](CCC(=O)O)C(=O)O)cc3)nc2c(=O)[nH]1` [10-formylfolic acid], in experiment [1] (setting [4]), the Ki came out at 13 ± 6 µM. In experiment [1] (relative to folic acid), the “fold increase of affinity for MTHFS by N^10 formylation of folic acid” value is on record as approximately 5 fold.
Turning to `Nc1nc2ncc(CNc3ccc(C(=O)N[C@@H](CCC(=O)N[C@@H](CCC(=O)N[C@@H](CCC(=O)O)C(=O)O)C(=O)O)C(=O)O)cc3)nc2c(=O)[nH]1` [folic acidGlu3], the Ki in experiment [1] (setting [4]) was 17 ± 3 µM.
For `Nc1nc2c(c(=O)[nH]1)NC(CCN(C=O)c1ccc(C(=O)NC(CCC(=O)O)C(=O)O)cc1)CN2` (racemic) [(6RS)10-formylTHHF], the “Ki fold lower than the Ki for 5-formylTHHF” value in experiment [1] is reported as 3 fold. The Ki in experiment [1] (setting [4]) turned out to be 0.19 ± 0.02 µM.
A word on the Km: it is the substrate concentration at which the rate is half of its maximum. For the compound `Nc1nc2c(c(=O)[nH]1)N(C=O)C(CNc1ccc(C(=O)NC(CCC(=O)NC(CCC(=O)NC(CCC(=O)O)C(=O)O)C(=O)O)C(=O)O)cc1)CN2` (racemic) [(6RS)5-formylTHFGlu3], in experiment [1] (37° C., pH 6.0), the Km worked out at 0.4 ± 0.1 µM.
For the compound `CNC[C@H](O)c1ccc(O)c(O)c1` [epinephrine], the “[^3H]folate accumulation” value in experiment [2] was “Neither the addition of dopamine nor epinephrine to culture media impaired [^3H]folate accumulation”.
Regarding `N[C@@H](Cc1ccc(O)c(O)c1)C(=O)O` [L-dopa], the “folate turnover rates compared to untreated cells” value in experiment [3] is reported as “did not affect folate turnover rates”.
Take `Nc1nc2c(c(=O)[nH]1)NC(CN(C=O)c1ccc(C(=O)N[C@@H](CCC(=O)N[C@@H](CCC(=O)N[C@@H](CCC(=O)O)C(=O)O)C(=O)O)C(=O)O)cc1)CN2` (stereo partly shown) [10-formylTHF triglutamate]: in experiment [1] (natural isomer, read-out: Ki for MTHFS), the Ki amounted to 0.015 µM.
As for `Nc1nc2ncc(CNc3ccc(C(=O)NC(CCC(=O)NC(CCC(=O)NC(CCC(=O)NC(CCC(=O)NC(CCC(=O)O)C(=O)O)C(=O)O)C(=O)O)C(=O)O)C(=O)O)cc3)nc2c(=O)[nH]1` (stereo not shown) [folic acidGlu5], the Ki in experiment [1] (setting [4]) was found to be 1 ± 0.3 µM.
Consider `Nc1nc2c(c(=O)[nH]1)N(C=O)C(CCNc1ccc(C(=O)N[C@@H](CCC(=O)O)C(=O)O)cc1)CN2` (mixture of isomers) [(6RS)5-formylTHHF, 5-formyltetrahydrohomofolate], for which, in experiment [1] (setting [4]), the Ki amounted to 0.7 ± 0.3 µM.
Consider `Nc1nc2c(c(=O)[nH]1)NC(CN(C=O)c1ccc(C(=O)N[C@@H](CCC(=O)O)C(=O)O)cc1)CN2` (stereo partly drawn) [(6R)10-formylTHF, 10-formyltetrahydrofolate], for which the “fold increased affinity for MTHFS (Ki) compared to the substrate 5-formylTHF (Km)” value in experiment [1] is 56 fold and 60 fold. The Ki in experiment [1] (setting [4]) stood at 0.15 µM.
With `Nc1nc2c(c(=O)[nH]1)N(C=O)C(CNc1ccc(C(=O)O)cc1)CN2` (racemic) [(6RS)5-formylTHPteroate], in experiment [1] (37° C., pH 6.0), the Km is 33 ± 10 µM.
`CN(CC1CNc2nc(N)[nH]c(=O)c2N1C=O)c1ccc(C(=O)N[C@@H](CCC(=O)O)C(=O)O)cc1` (mixture of isomers) [(6RS)5-formyl,10-methylTHF]: in experiment [1] (setting [4]), the Ki was determined as 10 ± 1 µM.
For `Nc1nc2c(c(=O)[nH]1)NC(CN(C=O)c1ccc(C(=O)N[C@@H](CCC(=O)N[C@@H](CCC(=O)N[C@@H](CCC(=O)O)C(=O)O)C(=O)O)C(=O)O)cc1)CN2` (mixture of isomers) [(6RS)10-formylTHFGlu3], the “fold increased affinity (Ki) compared to the substrate 5-formylTHF triglutamate (Km)” value in experiment [1] is on record as 13 fold. In addition, the Ki in experiment [1] (setting [4]) was 0.03 ± 0.01 µM.
For the compound `Nc1nc2c(c(=O)[nH]1)NC(CN(C=O)c1ccc(C(=O)O)cc1)CN2` (racemic) [(6RS)10-formylTHPteroate], the Ki in experiment [1] (setting [4]) came to 5 ± 2 µM.
As to `Nc1nc2ncc(CNc3ccc(C(=O)N[C@@H](CCC(=O)O)C(=O)O)cc3)nc2c(=O)[nH]1` [folic acid], the Ki in experiment [1] (setting [4]) worked out at 58 ± 5 µM.
Turning to `Nc1nc2c(c(=O)[nH]1)N(C=O)C(CNc1ccc(C(=O)N[C@@H](CCC(=O)O)C(=O)O)cc1)CN2` (stereo partly drawn) [(6S)5-formylTHF, 5-formyl tetrahydrofolate], in experiment [1] (37° C., pH 6.0), the Km was 10 ± 3 µM.
For the compound `CN(CCC1CNc2nc(N)[nH]c(=O)c2N1C=O)c1ccc(C(=O)N[C@@H](CCC(=O)O)C(=O)O)cc1` (mixture of isomers) [(6RS)5-formyl,10-methylTHHF], the Ki in experiment [1] (setting [4]) came to 6 ± 3 µM.
Take `CN(CC1CNc2nc(N)[nH]c(=O)c2N1C=O)c1ccc(C(=O)N[C@@H](CCC(=O)N[C@@H](CCC(=O)N[C@@H](CCC(=O)O)C(=O)O)C(=O)O)C(=O)O)cc1` (mixture of isomers) [(6RS)5-formyl,10-methylTHFGlu3]: the Ki in experiment [1] (setting [4]) was found to be 20 ± 2 µM.
